Results reported in patent US20040176442A1, “Potassium taurate bicarbonate and ascorbate” (priority 2003, published 2004).
Values joined by “and” are separate entries in the source; they are usually repeats but may differ in a detail not shown here. Equal values may be shown once.

Test system: Dahl salt-sensitive rats
Assay: Systolic blood pressure of Dahl salt-sensitive rats on high salt diet, PTB in drinking water (tail-cuff plethysmography)
Type: in vivo, rat
Settings: for Average systolic blood pressure: 13.5 grams/liter PTB in drinking water
Procedure: An experimental study was undertaken to assess the effect on blood pressure of oral PTB given in drinking water to Dahl salt-sensitive rats, which are known to experience an increase in blood pressure upon administration of salt. In this study, salt was administered in the diet to two groups of rats, a placebo group that received salt but not PTB and an active group that received both salt and PTB in drinking water.
The study was conducted as follows: Twenty-four Dahl salt-sensitive male rats were fed regular rat chow containing 0.24% (w/w) sodium chloride for an acclimatization period. The rats were then switched to a high salt diet (4% NaCl and 1.5% KCl) and were randomly divided into two groups of twelve rats each—an active group supplied with drinking water containing 13.5 grams/liter PTB (prepared as described in Example 2, and a placebo group receiving ordinary drinking water. Food and water were available ad libitum to both groups over the 28-day course of the study. The systolic blood pressure of each rat was determined twice a week over the course of the study by the tail-cuff plethysmography method. Each recorded blood pressure was the average of 3-5 individual readings.
Systolic blood pressure rose progressively after high-salt intake in the placebo group, reaching 172±4 mm Hg at day 28.

Structure (SMILES): NCCS(=O)(=O)O.O=C([O-])O.[K+] [PTB, potassium taurate bicarbonate]
- Blunting of the expected rise in systolic blood pressure (active vs placebo group) (by the end of the 28-day study, PTB in drinking water, high salt diet): 21 mm Hg
- Average systolic blood pressure (day 3 after administration, high salt diet (4% NaCl and 1.5% KCl)): 114 mm Hg
- Average systolic blood pressure (day 7 after administration, high salt diet): 126 mm Hg
- Average systolic blood pressure (day 10 after administration, high salt diet): 133 mm Hg
- Average systolic blood pressure (day 14 after administration, high salt diet): 134 mm Hg
- Average systolic blood pressure (day 17 after administration, high salt diet): 138±2 mm Hg and 138 mm Hg
- Average systolic blood pressure (day 21 after administration, high salt diet): 150 mm Hg
- Average systolic blood pressure (day 24 after administration, high salt diet): 143±3 mm Hg and 143 mm Hg
- Average systolic blood pressure (day 28 after administration, high salt diet): 151±3 mm Hg and 151 mm Hg
